How the values were obtained:
[1] = system: PI3Kα-WT A549 cells; experiment: TIRF microscopy of PIP3 reporter, PI3Kα-WT A549; format: cell-based, human; details: 1938, then BYL719 0.5 μM
Description: Phosphoinositide reporters used were GFP-PH-ARNO^I303Ex2 (PIP3 reporter[41]) and mCherry-cPH-TAPP1x3 (PI(3,4)P2 reporter[41]). TIRF microscopy allows selective imaging of the small cell volume, including the plasma membrane, directly adjacent to the coverslip onto which cells have been seeded. HeLa or A549 cells were seeded in Matrigel-coated (Corning #354230; diluted in Opti-MEM at 1:50) 8-well chamber slides (glass bottom, 1.55 refractive index; Thermo Fisher Scientific #155409) at a density of 5,000 cells/well. […]
Image analyses of total reporter intensities were performed with the Fiji open source image analysis package. The region of interest (ROI) corresponding to the footprint of the individual cell across time points were defined using minimal intensity projection to select only pixels present across all time points, following prior subtraction of camera noise (rolling ball method, radius = 500 pixels) and xy drift correction, intensity levels over time were measured. […] All other quantifications were performed using the open source software R/RStudio. The values plotted in Fig. 3d (iii) represent mean±SEM, following signal scaling to minimum and maximum values of the normalised fluorescence intensity for each time point (Fn(t)). […]

[2] = system: adult rat DRG neurons; experiment: Neurite outgrowth in dissociated adult rat dorsal root ganglion cultures; format: cell-based; details: 72h; BYL719 500 nM with 1938 above 10^-7 M
Excerpt: Dissociated adult rat dorsal root ganglion (DRG) cultures were used as an in vitro model for neuroregeneration[80],[81]. DRG neurons were isolated from adult male (>250g) Wistar rats as described, with DRGs from each rat cultured separately. Following culling via schedule 1 (rising concentration of CO2), the spinal column was removed and stored in PBS on ice. Cord tissue was removed to expose the DRGs and roots in the intervertebral foramen and the DRGs removed with forceps and scalpel under a dissecting microscope (Olympus SZ40). DRGs were manually cleaned by removal of roots, capsule and capillaries with forceps and then placed in DMEM supplemented with P/S. DRGs were treated with 0.125% collagenase type IV solution at 37°C for 90 min, and then mechanically dissociated by trituration using a 1 ml pipette. The collagenase solution was removed by 2 rounds of centrifugation in complete DMEM (DMEM with 1% P/S and 10% FBS) at 400 xg for 5 min, followed by resuspension of the DRG cell pellet in complete DMEM supplemented with 0.01 mM cytosine arabinoside. DRGs were plated in 75-cm[2] flasks coated with 0.1 mg/ml poly-D-lysine and incubated at 37°C, 5% CO2. […] 9 fields per well were captured and analysed using the CSIRO Neurite Analysis 2 […] in Columbus analysis software (Perkin Elmer). […]

## Cc1nc(NC(=O)N2CCC[C@H]2C(N)=O)sc1-c1ccnc(C(C)(C)C(F)(F)F)c1 [BYL719, reference compound]
[1]
  plasma membrane PIP3 (biosensor): fully and acutely neutralized
[2]
  neurite outgrowth (total length of neurites): partially reduced the increase in neurite outgrowth
